Earlier results in patent US20080253966A1, “Diagnostic, Prognostic, and Therapeutic Factor Smac/Diablo in Human Cancer” (The Regents of The University of California, priority 2004, published 2008).

Test system: cell lines treated with paclitaxel, etoposide, camptothecin, and doxorubicine

Substance: first four amino acids of Smac/DIABLO: the first four amino acids of Smac/DIABLO (Arnt et al., J. Biol. Chem. 2002) (AVPI; UniProt Q9NR28 56-59, looked up, fragment)
- effect on apoptosis: increased apoptosis
